% of control and dTagg data for three compounds are collected here from ChEMBL document CHEMBL5465560, “Selectivity Literature for EUbOPEN Chemogenomic Library” (2024).

The structures appear in SMILES notation.

Assay [1] concerns the target T1, Mitogen-activated protein kinase kinase kinase 6 (Homo sapiens) (UniProt O95382).
T1 sequence (whole entry): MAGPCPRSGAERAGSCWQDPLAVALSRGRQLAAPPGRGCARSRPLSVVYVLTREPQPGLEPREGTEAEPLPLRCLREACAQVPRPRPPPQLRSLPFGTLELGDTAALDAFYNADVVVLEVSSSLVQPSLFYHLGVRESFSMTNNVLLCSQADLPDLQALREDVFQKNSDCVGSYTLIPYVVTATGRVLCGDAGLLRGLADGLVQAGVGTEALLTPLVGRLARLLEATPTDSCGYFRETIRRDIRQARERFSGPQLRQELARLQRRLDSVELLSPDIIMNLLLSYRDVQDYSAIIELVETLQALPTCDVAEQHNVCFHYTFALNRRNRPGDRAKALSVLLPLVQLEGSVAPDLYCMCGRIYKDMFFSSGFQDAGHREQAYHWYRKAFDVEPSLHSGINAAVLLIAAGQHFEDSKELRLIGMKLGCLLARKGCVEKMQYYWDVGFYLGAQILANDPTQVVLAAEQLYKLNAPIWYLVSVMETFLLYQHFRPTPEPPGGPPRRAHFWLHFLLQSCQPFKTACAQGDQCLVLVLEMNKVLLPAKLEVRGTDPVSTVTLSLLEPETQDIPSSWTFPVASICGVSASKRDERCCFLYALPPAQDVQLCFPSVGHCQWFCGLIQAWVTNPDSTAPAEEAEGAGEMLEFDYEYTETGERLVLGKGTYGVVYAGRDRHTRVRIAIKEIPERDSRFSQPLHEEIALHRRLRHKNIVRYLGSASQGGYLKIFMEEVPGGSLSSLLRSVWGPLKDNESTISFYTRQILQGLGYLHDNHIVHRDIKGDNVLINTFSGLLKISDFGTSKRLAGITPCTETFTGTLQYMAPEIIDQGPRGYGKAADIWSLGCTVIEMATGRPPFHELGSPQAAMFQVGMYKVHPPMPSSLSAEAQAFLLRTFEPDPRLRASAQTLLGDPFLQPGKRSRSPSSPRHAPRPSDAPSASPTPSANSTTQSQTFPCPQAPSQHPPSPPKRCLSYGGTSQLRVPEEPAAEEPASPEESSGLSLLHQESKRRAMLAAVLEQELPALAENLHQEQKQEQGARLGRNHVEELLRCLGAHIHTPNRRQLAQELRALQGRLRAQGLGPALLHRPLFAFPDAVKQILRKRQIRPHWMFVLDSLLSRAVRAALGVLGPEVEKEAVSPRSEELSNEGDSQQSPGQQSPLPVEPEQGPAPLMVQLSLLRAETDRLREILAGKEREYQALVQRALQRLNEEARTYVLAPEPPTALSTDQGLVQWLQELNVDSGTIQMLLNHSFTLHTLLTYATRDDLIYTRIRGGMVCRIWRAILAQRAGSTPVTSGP
As to the kind of experiment: Selectivity interaction (KinomeScan (DiscoverX)) EUB0001079a MAP3K6. The note with it: at 1 µM.

In assay [2] the target is Calcium/calmodulin-dependent protein kinase type II subunit gamma (Homo sapiens) (UniProt Q13555). As to the kind of experiment: Selectivity interaction (KinomeScan (DiscoverX)) EUB0001049a CAMK2G. The note with it: at 1 µM.
For assay [3], the target named is T2, Bromodomain-containing protein 1 (Homo sapiens) (UniProt O95696).
T2 sequence (whole entry): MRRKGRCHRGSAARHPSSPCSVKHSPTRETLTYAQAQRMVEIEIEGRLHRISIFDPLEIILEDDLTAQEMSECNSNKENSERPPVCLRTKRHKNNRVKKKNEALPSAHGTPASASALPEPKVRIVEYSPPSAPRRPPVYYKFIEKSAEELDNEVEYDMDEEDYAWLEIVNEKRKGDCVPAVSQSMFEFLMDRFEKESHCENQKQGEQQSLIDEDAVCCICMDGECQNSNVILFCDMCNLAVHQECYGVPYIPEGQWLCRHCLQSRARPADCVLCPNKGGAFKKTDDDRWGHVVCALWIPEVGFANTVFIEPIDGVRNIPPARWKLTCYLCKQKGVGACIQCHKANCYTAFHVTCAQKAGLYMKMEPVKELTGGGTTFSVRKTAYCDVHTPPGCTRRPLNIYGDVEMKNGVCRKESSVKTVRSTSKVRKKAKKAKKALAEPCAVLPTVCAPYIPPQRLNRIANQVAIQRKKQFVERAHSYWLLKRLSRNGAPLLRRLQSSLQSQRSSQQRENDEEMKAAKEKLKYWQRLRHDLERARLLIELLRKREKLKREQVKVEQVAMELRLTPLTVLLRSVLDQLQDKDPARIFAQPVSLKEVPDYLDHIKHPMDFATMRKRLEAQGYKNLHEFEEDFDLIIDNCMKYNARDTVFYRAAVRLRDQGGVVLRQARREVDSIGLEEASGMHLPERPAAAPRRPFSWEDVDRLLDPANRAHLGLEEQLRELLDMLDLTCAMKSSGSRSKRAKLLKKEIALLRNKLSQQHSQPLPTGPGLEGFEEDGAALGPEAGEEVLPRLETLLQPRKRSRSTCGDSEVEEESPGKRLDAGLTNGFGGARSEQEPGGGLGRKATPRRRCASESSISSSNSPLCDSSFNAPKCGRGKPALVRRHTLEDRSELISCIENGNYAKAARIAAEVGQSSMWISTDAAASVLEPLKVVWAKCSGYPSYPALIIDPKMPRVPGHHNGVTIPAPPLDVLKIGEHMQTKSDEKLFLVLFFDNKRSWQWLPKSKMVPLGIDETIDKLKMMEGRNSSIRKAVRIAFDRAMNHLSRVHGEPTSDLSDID
As to the kind of experiment: Selectivity interaction (PWWP, WD40, and Tudor domain panel (DSLS measurements, literature)) EUB0000270b BRD1.

Sequence of Calcium/calmodulin-dependent protein kinase type II subunit gamma (Homo sapiens) (Q13555 whole entry): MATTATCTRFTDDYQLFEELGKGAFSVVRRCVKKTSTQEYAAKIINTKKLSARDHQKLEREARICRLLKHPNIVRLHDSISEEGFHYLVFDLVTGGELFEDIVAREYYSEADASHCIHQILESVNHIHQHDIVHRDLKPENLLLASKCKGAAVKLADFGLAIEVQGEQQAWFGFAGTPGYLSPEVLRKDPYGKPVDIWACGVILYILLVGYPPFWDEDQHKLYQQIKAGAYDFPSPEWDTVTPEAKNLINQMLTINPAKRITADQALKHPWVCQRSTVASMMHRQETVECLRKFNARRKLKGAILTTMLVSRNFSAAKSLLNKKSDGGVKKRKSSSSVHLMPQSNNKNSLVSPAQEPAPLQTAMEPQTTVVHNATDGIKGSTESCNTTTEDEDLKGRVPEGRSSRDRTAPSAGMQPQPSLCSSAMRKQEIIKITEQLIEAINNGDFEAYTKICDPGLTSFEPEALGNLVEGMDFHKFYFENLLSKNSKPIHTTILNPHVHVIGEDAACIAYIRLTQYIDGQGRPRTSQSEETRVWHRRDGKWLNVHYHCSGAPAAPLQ

Compound `Nc1cnc(N2CCc3cc(S(=O)(=O)Nc4c(F)cc(Cl)cc4F)cc(N4CCCC4=O)c32)nc1` [TP-020n] returned a % of control in assay [1] of 75%.
With `COc1cc(Nc2nc(C)cc(-c3cnn4nc(OC)ccc34)n2)cc(C(F)(F)F)c1`, the % of control in assay [2] worked out at 90%.
In assay [3], `Cc1cc(CN)cc(C)c1-c1ncn(C)c1-c1cncn1C` registered a dTagg of -2.2 K.
